# Columns and labels:
# THR alpha-LBD = biological target: T1, THR alpha-LBD (Homo sapiens, UniProt P10827); test: THR-α Coactivator Peptide Recruitment Assay (LanthaScreen TR-FRET); assay type: biochemical; settings: TR-FRET coactivator recruitment, THR alpha-LBD 0.25 nM; for EC50: read-out: THRα EC50
# T1 construct: except that THR alpha-LBD of a final concentration 0.25 nM was used; purchased Invitrogen PV4687
# Procedure, shortened: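 TR-FRET coactivator recruitment with THR alpha-LBD at 0.25 nM final, Fluorescein-SRC2-2 peptide 0.1 nM and Tb-labeled anti-GST antibody 2 nM; 2 h incubation at room temperature. 520/495 nm emission ratio fitted to a four-parameter sigmoidal curve to give EC50.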
# THR beta-LBD = biological target: T2, THR beta-LBD (Homo sapiens, UniProt P10828); test: THR-β Coactivator Peptide Recruitment Assay (LanthaScreen TR-FRET); assay type: biochemical; settings: TR-FRET coactivator recruitment, THR beta-LBD 0.5 nM; for EC50: read-out: THRβ EC50
# T2 construct: THR beta-LBD (the final concentration is 0.5 nM) was added to the 384-well assay plate; purchased Invitrogen PV4686
# T2 sequence (P10828 217-461 limits assumed): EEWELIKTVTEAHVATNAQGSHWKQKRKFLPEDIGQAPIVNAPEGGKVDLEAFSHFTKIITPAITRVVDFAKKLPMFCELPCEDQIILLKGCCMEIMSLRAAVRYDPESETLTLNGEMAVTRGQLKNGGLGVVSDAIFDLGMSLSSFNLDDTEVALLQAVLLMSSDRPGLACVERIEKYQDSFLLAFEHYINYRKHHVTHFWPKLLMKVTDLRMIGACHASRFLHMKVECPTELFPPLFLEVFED
# Procedure, shortened: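 Agonist-driven coactivator recruitment read as a 520/495 nm TR-FRET emission ratio after 2 h at room temperature. Final concentrations: THR beta-LBD 0.5 nM, fluorescein-SRC2-2 peptide 0.1 nM, terbium anti-GST antibody 2 nM. EC50 from four-parameter dose-response fitting.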
# T1 sequence (P10827 163-410 isoform P10827-2 limits assumed, other chains not shown): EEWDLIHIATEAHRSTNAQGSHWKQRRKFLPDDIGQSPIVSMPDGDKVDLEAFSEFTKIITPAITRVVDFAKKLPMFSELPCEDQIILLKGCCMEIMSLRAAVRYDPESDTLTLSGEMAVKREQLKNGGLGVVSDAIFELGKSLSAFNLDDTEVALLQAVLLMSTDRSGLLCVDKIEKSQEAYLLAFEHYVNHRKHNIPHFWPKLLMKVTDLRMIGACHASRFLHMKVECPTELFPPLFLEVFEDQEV
THRα Emax (THR alpha-LBD),EC50 (THR alpha-LBD),THRβ Emax (THR beta-LBD),EC50 (THR beta-LBD),Structure (SMILES)
A (85~110),2 to 200 nM,A (90~110),2 to 20 nM,"O=c1[nH]c(=O)n(-c2cc(Cl)c(Oc3ccc(O)c(S(=O)(=O)NC45CC(O)(C4)C5)c3)c(Cl)c2)nc1C(F)F [Compound 81, 5-(2,6-dichloro-4-(6-(difluoromethyl)-3,5-dioxo-4,5-dihydro-1,2,4-triazin-2(3H)-yl)phenoxy)-2-hydroxy-N-(3-hydroxybicyclo[1.1.1]pentan-1-yl)benzenesulfonamide]"
A (85~110),2 to 200 nM,A (90~110),< 2 nM,"O=c1[nH]c(=O)n(-c2cc(Cl)c(Oc3ccc(O)c(S(=O)(=O)NC4CS(=O)(=O)C4)c3)c(Cl)c2)nc1C(F)F [Compound 83, 5-(2,6-dichloro-4-(6-(difluoromethyl)-3,5-dioxo-4,5-dihydro-1,2,4-triazin-2(3H)-yl)phenoxy)-N-(1,1-dioxidothietan-3-yl)-2-hydroxybenzenesulfonamide]"
A (85~110),2 to 200 nM,A (90~110),< 2 nM,"O=C(NCC1(NS(=O)(=O)c2cc(Oc3c(Cl)cc(-n4nc(C(F)F)c(=O)[nH]c4=O)cc3Cl)ccc2O)CC1)C1CC1 [Compound 84, N-[[1-[[5-[2,6-dichloro-4-[6-(difluoromethyl)-3,5-dioxo-1,2,4-triazin-2-yl]phenoxy]-2-hydroxy-phenyl]sulfonylamino]cyclopropyl]methyl]cyclopropane carboxamide]"
B (40~85),200 to 1000 nM,B (75~90),< 2 nM,"O=C(NCC(F)F)C1(NS(=O)(=O)c2cc(Oc3c(Cl)cc(-n4nc(C(F)F)c(=O)[nH]c4=O)cc3Cl)ccc2O)CC1 [Compound 87, 1-[[5-[2,6-dichloro-4-[6-(difluoromethyl)-3,5-dioxo-1,2,4-triazin-2-yl]phenoxy]-2-hydroxy-phenyl]sulfonylamino]-N-(2,2-difluoroethyl) cyclopropanecarboxamide]"
B (40~85),200 to 1000 nM,B (75~90),20 to 100 nM,"O=C(CNS(=O)(=O)c1cc(Oc2c(Cl)cc(-n3nc(C(F)F)c(=O)[nH]c3=O)cc2Cl)ccc1O)NCC(F)F [Compound 88, 2-((5-(2,6-dichloro-4-(6-(difluoromethyl)-3,5-dioxo-4,5-dihydro-1,2,4-triazin-2(3H)-yl)phenoxy)-2-hydroxyphenyl)sulfonamido)-N-(2,2-difluoroethyl)acetamide]"
A (85~110),2 to 200 nM,B (75~90),< 2 nM,"O=C(NC1CCC1)C1(NS(=O)(=O)c2cc(Oc3c(Cl)cc(-n4nc(C(F)F)c(=O)[nH]c4=O)cc3Cl)ccc2O)CC1 [Compound 89, N-cyclobutyl-1-((5-(2,6-dichloro-4-(6-(difluoromethyl)-3,5-dioxo-4,5-dihydro-1,2,4-triazin-2(3H)-yl)phenoxy)-2-hydroxyphenyl)sulfonamido)cyclopropane-1-carboxamide]"
A (85~110),2 to 200 nM,B (75~90),< 2 nM,"O=C(NC1CCCC1)C1(NS(=O)(=O)c2cc(Oc3c(Cl)cc(-n4nc(C(F)F)c(=O)[nH]c4=O)cc3Cl)ccc2O)CC1 [Compound 90, N-cyclopentyl-1-((5-(2,6-dichloro-4-(6-(difluoromethyl)-3,5-dioxo-4,5-dihydro-1,2,4-triazin-2(3H)-yl)phenoxy)-2-hydroxyphenyl)sulfonamido)cyclopropane-1-carboxamide]"
A (85~110),< 2 nM,A (90~110),< 2 nM,CS(=O)(=O)c1cc(Oc2c(Cl)cc(-n3nc(C(F)F)c(=O)[nH]c3=O)cc2Cl)ccc1O [Compound 95]

# Second part, the compound before the results:
Structure (SMILES),THRα Emax (THR alpha-LBD),EC50 (THR alpha-LBD),THRβ Emax (THR beta-LBD),EC50 (THR beta-LBD)
"CS(=O)(=O)[C@H]1C[C@H](NS(=O)(=O)c2cc(Oc3c(Cl)cc(-n4nc(C(F)F)c(=O)[nH]c4=O)cc3Cl)ccc2O)C1 [Compound 82, 5-(2,6-dichloro-4-(6-(difluoromethyl)-3,5-dioxo-4,5-dihydro-1,2,4-triazin-2(3H)-yl)phenoxy)-2-hydroxy-N-((1r,3r)-3-(methylsulfonyl)cyclobutyl)benzenesulfonamide]",B (40~85),> 1000 nM,B (75~90),20 to 100 nM
"O=C(NC12CC(NS(=O)(=O)c3cc(Oc4c(Cl)cc(-n5nc(C(F)F)c(=O)[nH]c5=O)cc4Cl)ccc3O)(C1)C2)C1CC1 [Compound 85, N-(3-((5-(2,6-dichloro-4-(6-(difluoromethyl)-3,5-dioxo-4,5-dihydro-1,2,4-triazin-2(3H)-yl)phenoxy)-2-hydroxyphenyl)sulfonamido)bicyclo[1.1.1]pentan-1-yl)cyclopropanecarboxamide]",C (<40),> 1000 nM,C (<75),> 100 nM
"O=C(N[C@H]1C[C@@H](NS(=O)(=O)c2cc(Oc3c(Cl)cc(-n4nc(C(F)F)c(=O)[nH]c4=O)cc3Cl)ccc2O)C1)C1CC1 [Compound 86, N-((1s,3s)-3-((5-(2,6-dichloro-4-(6-(difluoromethyl)-3,5-dioxo-4,5-dihydro-1,2,4-triazin-2(3H)-yl)phenoxy)-2-hydroxyphenyl)sulfonamido)cyclobutyl) cyclopropanecarboxamide]",C (<40),200 to 1000 nM,C (<75),2 to 20 nM
"O=C(N1CCCC1)C1(NS(=O)(=O)c2cc(Oc3c(Cl)cc(-n4nc(C(F)F)c(=O)[nH]c4=O)cc3Cl)ccc2O)CC1 [Compound 91, 5-(2,6-dichloro-4-(6-(difluoromethyl)-3,5-dioxo-4,5-dihydro-1,2,4-triazin-2(3H)-yl)phenoxy)-2-hydroxy-N-(1-(pyrrolidine-1-carbonyl)cyclopropyl)benzenesulfonamide]",B (40~85),200 to 1000 nM,A (90~110),2 to 20 nM
"O=C(NC1CC1)C1(NS(=O)(=O)c2cc(Oc3c(Cl)cc(-n4nc(C(F)F)c(=O)[nH]c4=O)cc3Cl)ccc2O)CCC1 [Compound 92, N-cyclopropyl-1-((5-(2,6-dichloro-4-(6-(difluoromethyl)-3,5-dioxo-4,5-dihydro-1,2,4-triazin-2(3H)-yl)phenoxy)-2-hydroxyphenyl)sulfonamido)cyclobutane-1-carboxamide]",B (40~85),200 to 1000 nM,B (75~90),2 to 20 nM
"O=C(NC1CC1)C1(NS(=O)(=O)c2cc(Oc3c(Cl)cc(-n4nc(C(F)(F)F)c(=O)[nH]c4=O)cc3Cl)ccc2O)CC1 [Compound 93, N-cyclopropyl-1-((5-(2,6-dichloro-4-(3,5-dioxo-6-(trifluoromethyl)-4,5-dihydro-1,2,4-triazin-2(3H)-yl)phenoxy)-2-hydroxyphenyl)sulfonamido)cyclopropane-1-carboxamide]",C (<40),> 1000 nM,B (75~90),20 to 100 nM
"CS(=O)(=O)CC1(NS(=O)(=O)c2cc(Oc3c(Cl)cc(-n4nc(C(F)F)c(=O)[nH]c4=O)cc3Cl)ccc2O)CC1 [Compound 94, 5-[2,6-dichloro-4-[6-(difluoromethyl)-3,5-dioxo-1,2,4-triazin-2-yl]phenoxy]-2-hydroxy-N-[1-(methylsulfonylmethyl)cyclopropyl] benzene sulfonamide]",B (40~85),200 to 1000 nM,B (75~90),2 to 20 nM

# From patent US12291518B2, “Thyroid hormone receptor agonists and use thereof” (Eccogene Inc., priority 2020, dated 2025)
